Measured values published in publication PMC8205226, “HIV-1 Integrase Inhibitors with Modifications That Affect Their Potencies against Drug Resistant Integrase Mutants” (ACS Infectious Diseases, 2021).

Key:
Format in all cases: cell-based
WT HIV-1 = assay: single-round infectivity assay, WT HIV-1 IN vector; settings: Human immunodeficiency virus 1, read-out: EC50 values WT, vector carrying WT HIV-1 IN, single round infection, n = 4; new compounds
Protocol: (§1) Figure 2 Antiviral activities of the new compounds against RAL-resistant mutants. The EC50 values were determined using a vector that carries WT HIV-1 IN and the RAL-resistant mutants in a single round infection assay. […] Error bars represent the standard deviations of independent experiments, n = 4, performed in triplicate. The graph has a maximum value of 550 nM.
(§2) WT and mutant HIV-1 viral vectors were used in single-round infectivity assays to determine the antiviral potencies (EC50 values) of the compounds and the effects of the mutants on the EC50 values as previously described.[30],[54] Single round infectivity measurements were determined as done previously.[38]
(§3) The vector pNLNgoMIVR-ΔENV.LUC has been described previously.[26] To produce the new IN mutants used in this study, the IN open reading frame was removed from pNLNgoMIVR-ΔENV.LUC by digestion with KpnI and SalI, and the resulting fragment was inserted between the KpnI and SalI sites of pBluescript KS+. Using that construct as the wild-type template, we prepared the following HIV-1 IN mutants using the QuikChange II XL site directed mutagenesis kit (Agilent Technologies, Santa Clara, CA) protocol: N117A, N117H, P142A, P142H, P142S, Y143C, Y143H, S230R, R231G, and R231K. The following sense oligonucleotides were used with matching cognate antisense oligonucleotides (not shown) (Integrated DNA Technologies, Coralville, IA) in the mutagenesis: N117A, 5′-[…]-3′; N117H, 5′-[…]-3′; P142A, 5′-[…]-3′; P142H, 5′-[…]-3′; P142S, 5′-[…]-3′; Y143C, 5′- […]-3′; Y143H, 5′-[…]-3′; S230R, 5′- […]-3′; R231G, 5′-[…]-3′; R231K, 5′-[…]-3′.

HIV-1 IN mutant Y143R = assay: single-round infectivity assay, Y143R IN mutant
Protocol: as §1, §2, §3

HIV-1 IN mutant N155H = assay: single-round infectivity assay, N155H IN mutant
Protocol: as §1, §2, §3

[1] = test system: HIV-1 IN double mutant G140S/Q148H; assay: single-round infectivity assay, G140S/Q148H IN double mutant
Protocol: as §1, §2, §3

HIV-1 IN mutant N117A = assay: single-round infectivity assay, N117A IN mutant
Protocol: (§4) The EC50 values were determined using a vector that carries the IN mutant in a single round infection assay. […] Error bars represent the standard deviations of independent experiments, n = 4, performed in triplicate.
as §2, §3

HIV-1 IN mutant N117H = assay: single-round infectivity assay, N117H IN mutant
Protocol: as §4, §2, §3

HIV-1 IN mutant G118R = assay: single-round infectivity assay, G118R IN mutant
Protocol: as §4, §2, §3

HIV-1 IN mutant S119R = assay: single-round infectivity assay, S119R IN mutant
Protocol: as §4, §2, §3

HIV-1 IN mutant Y143C = assay: single-round infectivity assay, Y143C IN mutant; settings: EC50 compound / EC50 DTG
Protocol: as §4, with “Figure 4 Mutations in the β5-α3 loop affect the antiviral potencies of the new compounds. The” for “The”
as §2, §3

HIV-1 IN mutant Y143H = assay: single-round infectivity assay, Y143H IN mutant; settings: EC50 compound / EC50 DTG
Protocol: as §4, with “Figure 4 Mutations in the β5-α3 loop affect the antiviral potencies of the new compounds. The” for “The”
as §2, §3

HIV-1 IN mutant P142A = assay: single-round infectivity assay, P142A IN mutant
Protocol: as §4, with “Figure 4 Mutations in the β5-α3 loop affect the antiviral potencies of the new compounds. The” for “The”
as §2, §3

HIV-1 IN mutant P142H = assay: single-round infectivity assay, P142H IN mutant
Protocol: as §4
Single round infectivity measurements were determined as done previously.[38]
as §3

HIV-1 IN mutant P142S = assay: single-round infectivity assay, P142S IN mutant
Protocol: as §4, with “Figure 4 Mutations in the β5-α3 loop affect the antiviral potencies of the new compounds. The” for “The”
as §2, §3

HIV-1 IN mutant S230R = assay: single-round infectivity assay, S230R IN mutant
Protocol: as §4, with “Figure 5 Antiviral potencies of the new compounds against IN with mutations in the […]. The” for “The”
as §2, §3

HIV-1 IN mutant R231G = assay: single-round infectivity assay, R231G IN mutant
Protocol: as §4, with “Figure 5 Antiviral potencies of the new compounds against IN with mutations in the […]. The” for “The”
as §2, §3

HIV-1 IN mutant R231K = assay: single-round infectivity assay, R231K IN mutant
Protocol: as §4, with “Figure 5 Antiviral potencies of the new compounds against IN with mutations in the […]. The” for “The”
as §2, §3

[2] = fold change in EC50, IN mutant versus WT HIV-1

CS(=O)(=O)CCc1cnc2c(c1)c(N)c(C(=O)NCc1ccc(F)cc1F)c(=O)n2O [6u, 4-Amino-N-(2,4-difluorobenzyl)-1-hydroxy-6-(2-(methylsulfonyl)ethyl)-2-oxo-1,2-dihydro-1,8-naphthyridine-3-carboxamide]
EC50 (WT HIV-1): 27 ± 3.2 nM
ratio of the EC50s (our compound relative to DTG) against Y143R (HIV-1 IN mutant Y143R; EC50 compound / EC50 DTG): 6.4
EC50 (HIV-1 IN mutant Y143R; Human immunodeficiency virus 1, read-out: EC50 values Y143R): 27.5 ± 0.4 nM
FC Y143R (HIV-1 IN mutant Y143R; [2]): 1.0
ratio of the EC50s (our compound relative to DTG) against N155H (HIV-1 IN mutant N155H; EC50 compound / EC50 DTG): 9.1
EC50 (HIV-1 IN mutant N155H; Human immunodeficiency virus 1, read-out: EC50 values N155H): 32.8 ± 6 nM
FC N155H (HIV-1 IN mutant N155H; [2]): 1.2
ratio of the EC50s (our compound relative to DTG) against G140S/Q148H ([1]; EC50 compound / EC50 DTG): 20.3
EC50 ([1]; Human immunodeficiency virus 1, read-out: EC50 values G140S/Q148H): 118 ± 31.3 nM
FC G140S/Q148H [1, 2]: 4.4
ratio of the EC50s (our compound relative to DTG) against N117A (HIV-1 IN mutant N117A; EC50 compound / EC50 DTG): 30.0
EC50 (HIV-1 IN mutant N117A; Human immunodeficiency virus 1, read-out: EC50 values N117A): 15 nM
FC N117A (HIV-1 IN mutant N117A; [2]): 0.6
ratio of the EC50s (our compound relative to DTG) against N117H (HIV-1 IN mutant N117H; EC50 compound / EC50 DTG): 24.3
EC50 (HIV-1 IN mutant N117H; Human immunodeficiency virus 1, read-out: EC50 values N117H): 58.3 ± 5.9 nM
FC N117H (HIV-1 IN mutant N117H; [2]): 2.2
ratio of the EC50s (our compound relative to DTG) against G118R (HIV-1 IN mutant G118R; EC50 compound / EC50 DTG): 16.5
EC50 (HIV-1 IN mutant G118R; Human immunodeficiency virus 1, read-out: EC50 values G118R): 214 ± 26.3 nM
FC G118R (HIV-1 IN mutant G118R; [2]): 7.9
ratio of the EC50s (our compound relative to DTG) against S119R (HIV-1 IN mutant S119R; EC50 compound / EC50 DTG): 24.5
EC50 (HIV-1 IN mutant S119R; Human immunodeficiency virus 1, read-out: EC50 values S119R): 56.4 ± 11 nM
FC S119R (HIV-1 IN mutant S119R; [2]): 2.1
ratio of the EC50s (our compound relative to DTG) against Y143C (HIV-1 IN mutant Y143C): 31.4
ratio of the EC50s (our compound relative to DTG) against Y143H (HIV-1 IN mutant Y143H): 17.0
ratio of the EC50s (our compound relative to DTG) against P142A (HIV-1 IN mutant P142A; EC50 compound / EC50 DTG): 20.3
EC50 (HIV-1 IN mutant P142A; Human immunodeficiency virus 1, read-out: EC50 values P142A): 50.8 ± 6.4 nM
ratio of the EC50s (our compound relative to DTG) against P142H (HIV-1 IN mutant P142H; EC50 compound / EC50 DTG): 16.1
EC50 (HIV-1 IN mutant P142H; Human immunodeficiency virus 1, read-out: EC50 values P142H): 45.1 ± 5.2 nM
ratio of the EC50s (our compound relative to DTG) against P142S (HIV-1 IN mutant P142S; EC50 compound / EC50 DTG): 23.4
EC50 (HIV-1 IN mutant P142S; Human immunodeficiency virus 1, read-out: EC50 values P142S): 51.5 ± 2.4 nM
ratio of the EC50s (our compound relative to DTG) against S230R (HIV-1 IN mutant S230R; EC50 compound / EC50 DTG): 19.1
EC50 (HIV-1 IN mutant S230R; Human immunodeficiency virus 1, read-out: EC50 values S230R): 88 ± 14.5 nM
FC S230R (HIV-1 IN mutant S230R; [2]): 3.3
ratio of the EC50s (our compound relative to DTG) against R231G (HIV-1 IN mutant R231G; EC50 compound / EC50 DTG): 22.5
EC50 (HIV-1 IN mutant R231G; Human immunodeficiency virus 1, read-out: EC50 values R231G): 31.5 ± 4 nM
FC R231G (HIV-1 IN mutant R231G; [2]): 1.2
ratio of the EC50s (our compound relative to DTG) against R231K (HIV-1 IN mutant R231K; EC50 compound / EC50 DTG): 18.7
EC50 (HIV-1 IN mutant R231K; Human immunodeficiency virus 1, read-out: EC50 values R231K, single round infection, n = 4): 78.4 ± 9.9 nM
FC R231K (HIV-1 IN mutant R231K; [2]): 2.9
